From publication PMC6950057, “Toxicity, Pharmacokinetics, and Gut Microbiome of Oral Administration of Sesterterpene MHO7 Derived from a Marine Fungus” (Marine Drugs, 2019)
Like-named read-outs stand apart in the source and are kept apart here.

Experiments:
[1] = Log D by shaking flask method (n-octanol/phosphate buffer); type: physicochemical; details: 37 °C
Experimental: An HPLC system (Shimadzu, Japan) was equipped with a LC-20AD binary pump system, a SIL-20AD auto sampler, a CBM-20A system controller, and a CTO-20A oven. Separation of MHO7 and IS from endogenous substances was carried out on an Agilent Zorbax XDB C18 column (5 μm, 250 × 4.6 mm, Agilent, Pal Alto, CA, USA), which was kept at 30 °C. The mobile phase was composed of 30% phase A (water) and 70% phase B (acetonitrile) with a flow rate of 1 mL·min^−1. The inject volume of the sample solution was 10 μL.
The phases of distilled water and n-octanol were saturated with each other by shaking for 48 h with 250 rpm in a shaking water bath prior to use. Solutions of MHO7 was prepared in concentration of 10 mM·L^−1 in n-octanol. Accurately measured amounts of the two solvents with necessary quantity of MHO7 were placed in a 5.0 mL centrifuge tube; then, the mixture was carried out at 250 rpm and designated temperature in the shaking water bath for 48 h to afford complete phase separation. The samples of both phases were collected at 0, 4, 8, 12, 24, 30, 36 and 48 h, diluted with methanol (1:1, V) and determined by HPLC with the detection wavelength of 234 nm. Each set of solvent systems for experimental logP/D value was the mean of the three determinations.

[2] = Acute toxicity / maximum tolerated dose, oral; type: in vivo, mice; set-up: Body weight / Heart weight / Liver weight / spleen weight / lung weight / kidney weight / Reproductive organs weight / brain weight: unit not given here; details: both sexes, mouse, in vivo, 2400 mg·kg^−1; oral administration, male and female KM mice; read-out: maximum tolerable dose (MTD)
Experimental: (§1) Male and female KM mice of 8–10 weeks of age (20–22 g) were used in acute toxicity experiment and only female KM mice were subjected in other animal experiments. All mice were purchased from the Vital River Laboratory Animal Technology Co. Ltd. (Beijing, China). The mice were bred in a standard environment (23 ± 1 °C; humidity of 60 ± 5%) with a 12-h light/dark cycle and food and water were provided ad libitum. All animal protocols were approved by the Animal Care and Use Committee of Wuhan University Center for Animal Experiment ABSL-Ⅲ Laboratory and complied with the Guide for the Care and Use of Laboratory Animals (NIH publication, 8th edition, 2011). In total, 130 mice were used for in vivo studies under the ethical approved protocols.
(§2) Male and female KM mice of 8–10 weeks of age (20–22 g) were used in acute toxicity experiment. After animals were acclimatized for 1 week, 20 female and 20 male mice were randomly and evenly divided into four groups. The mice of acute toxicity experiment were fasted overnight and administered by the oral dose of MHO7 (2400 mg·kg^−1, bw) diluted in corn oil the next morning. Then, mice were placed with free access to chow and water. […] The number surviving and their behaviors was also recorded every day.

KM mice = experiment: Acute toxicity / maximum tolerated dose, oral; type: in vivo; set-up: Body weight / Heart weight / Liver weight / spleen weight / lung weight / kidney weight / Reproductive organs weight / brain weight: unit not given here; details: for Body weight / Heart weight / Liver weight / Reproductive organs weight / brain weight / kidney weight / lung weight / spleen weight: 2400 mg/kg
Experimental: as §1, §2

With CC(C)=C/C=C/[C@H](C)[C@H]1CC[C@]2(C)C[C@@H]3C(C)=CC(=O)[C@H]3/C(C=O)=C\C[C@@H]12 [MHO7, 6-epi-ophiobolin G] as the compound, how does the logD at 4 h ([1]; octanol/PBS pH 1.5, 4 h, read-out: Log P/D Value O/P (pH 1.5)) read?
Its logD at 4 h is 1.29 ± 0.02.

And the logD at 8 h ([1]; octanol/PBS pH 1.5, 8 h, read-out: Log P/D Value O/P (pH 1.5))?
Its logD at 8 h is 1.22 ± 0.04.

And the logD at 12 h ([1]; octanol/PBS pH 1.5, 12 h, read-out: Log P/D Value O/P (pH 1.5))?
The logD at 12 h was 1.13 ± 0.03.

And the logD at 24 h ([1]; octanol/PBS pH 1.5, 24 h, read-out: Log P/D Value O/P (pH 1.5))?
Its logD at 24 h is 1.13 ± 0.02.

And the logD at 30 h ([1]; octanol/PBS pH 1.5, 30 h, read-out: Log P/D Value O/P (pH 1.5))?
Its logD at 30 h is 1.12 ± 0.15.

And the logD at 36 h ([1]; octanol/PBS pH 1.5, 36 h, read-out: Log P/D Value O/P (pH 1.5))?
Its logD at 36 h is 1.12 ± 0.03.

What about the logD at 48 h ([1]; octanol/PBS pH 1.5, 48 h, read-out: Log P/D Value O/P (pH 1.5)) of the same compound?
The logD at 48 h was 1.12 ± 0.03.

What about the logD at 4 h ([1]; octanol/PBS pH 5.0, 4 h, read-out: Log P/D Value O/P (pH 5.0)) of the same compound?
Its logD at 4 h is 1.15 ± 0.02.

And the logD at 8 h ([1]; octanol/PBS pH 5.0, 8 h, read-out: Log P/D Value O/P (pH 5.0))?
Its logD at 8 h is 1.03 ± 0.05.

What about the logD at 12 h ([1]; octanol/PBS pH 5.0, 12 h, read-out: Log P/D Value O/P (pH 5.0)) of the same compound?
The logD at 12 h was 0.95 ± 0.03.

And the logD at 24 h ([1]; octanol/PBS pH 5.0, 24 h, read-out: Log P/D Value O/P (pH 5.0))?
The logD at 24 h was 0.95 ± 0.04.

What about the logD at 30 h ([1]; octanol/PBS pH 5.0, 30 h, read-out: Log P/D Value O/P (pH 5.0)) of the same compound?
The logD at 30 h was 0.95 ± 0.03.

What about the logD at 36 h ([1]; octanol/PBS pH 5.0, 36 h, read-out: Log P/D Value O/P (pH 5.0)) of the same compound?
Its logD at 36 h is 0.93 ± 0.03.

What about the logD at 48 h ([1]; octanol/PBS pH 5.0, 48 h, read-out: Log P/D Value O/P (pH 5.0)) of the same compound?
The logD at 48 h was 0.93 ± 0.02.

And the logD at 4 h ([1]; octanol/PBS pH 7.4, 4 h, read-out: Log P/D Value O/P (pH 7.4))?
The logD at 4 h was 1.39 ± 0.03.

And the logD at 8 h ([1]; octanol/PBS pH 7.4, 8 h, read-out: Log P/D Value O/P (pH 7.4))?
The logD at 8 h was 1.37 ± 0.05.

What about the logD at 12 h ([1]; octanol/PBS pH 7.4, 12 h, read-out: Log P/D Value O/P (pH 7.4)) of the same compound?
The logD at 12 h was 1.31 ± 0.03.

And the logD at 24 h ([1]; octanol/PBS pH 7.4, 24 h, read-out: Log P/D Value O/P (pH 7.4))?
Its logD at 24 h is 1.29 ± 0.02.

What about the logD at 30 h ([1]; octanol/PBS pH 7.4, 30 h, read-out: Log P/D Value O/P (pH 7.4)) of the same compound?
Its logD at 30 h is 1.27 ± 0.04.

And the logD at 36 h ([1]; octanol/PBS pH 7.4, 36 h, read-out: Log P/D Value O/P (pH 7.4))?
Its logD at 36 h is 1.26 ± 0.05.

And the logD at 48 h ([1]; octanol/PBS pH 7.4, 48 h, read-out: Log P/D Value O/P (pH 7.4))?
The logD at 48 h was 1.26 ± 0.01.

And the MTD at 2 weeks [2]?
Its MTD at 2 weeks is 2400 mg/kg.

What about the Body weight (KM mice; female mice) of the same compound?
Its Body weight is 33.30±2.1.

What about the Heart weight (KM mice; female mice) of the same compound?
Its Heart weight is 0.15±0.01.

What about the Liver weight (KM mice; female mice) of the same compound?
The Liver weight was 1.49±0.09.

What about the Reproductive organs weight (KM mice; female mice) of the same compound?
Its Reproductive organs weight is 0.21±0.05.

What about the brain weight (KM mice; female mice) of the same compound?
The brain weight was 0.40±0.07.

And the kidney weight (KM mice; female mice)?
The kidney weight was 0.46±0.02.

And the lung weight (KM mice; female mice)?
Its lung weight is 0.22±0.02.

What about the spleen weight (KM mice; female mice) of the same compound?
The spleen weight was 0.13±0.05.

What about the Body weight (KM mice; male mice) of the same compound?
Its Body weight is 38.75±2.96.

And the Heart weight (KM mice; male mice)?
Its Heart weight is 0.18±0.02.

And the Liver weight (KM mice; male mice)?
Its Liver weight is 2.39±0.38.

And the Reproductive organs weight (KM mice; male mice)?
The Reproductive organs weight was 0.19±0.02.

What about the brain weight (KM mice; male mice) of the same compound?
The brain weight was 0.42±0.06.

And the kidney weight (KM mice; male mice)?
Its kidney weight is 0.58±0.06.

What about the lung weight (KM mice; male mice) of the same compound?
Its lung weight is 0.22±0.03.

And the spleen weight (KM mice; male mice)?
Its spleen weight is 0.15±0.03.

What about the “weight ranges (Table S5), treatment vs control group” value (KM mice; oral 2400 mg·kg^−1) of the same compound?
The value was “no significant difference”.

And the observed toxicity (KM mice; oral 2400 mg·kg^−1, 14 days observation)?
The observed toxicity was “No obvious toxicity was observed”.

What about the “body weight, MHO7 group vs control group” value (KM mice; oral 2400 mg·kg^−1, after seven days) of the same compound?
The value was “no significant difference”.

What about the diarrhea (KM mice; oral 2400 mg·kg^−1, female and male mice, returned to normal within two days) of the same compound?
The diarrhea was “a small number of animals with diarrhea was found during the first day”.

What about the tolerability (KM mice; oral administration 2400 mg·kg^−1) of the same compound?
Its tolerability is “well-tolerated”.
